Assay results taken from patent US12138291B2, “Hemostatic composition and hemostatic method using hemostatic composition” (3-D MATRIX, LTD., priority 2015, dated 2024).

Key:
[1] = tested on: bleeding site of the porcine liver; assay: Hemostasis of oozing bleeding created by abrading the porcine liver, usual application vs spray application; format: in vivo, pig; conditions: for hemostasis outcome: peptide 1.5% (FIG. 9)
Excerpt: Oozing bleeding was created by abrading the porcine liver using a metal file. A self-organizing peptide solution was applied to the bleeding by usual application or spray application and evaluated for its hemostatic effect and applied amount.
• Animal species: pig • Breed: LWD • Sex: female • The number of animals introduced: 2 • Age in days at the time of introduction: any Body weight at the time of introduction: 50 kg Institute receiving the animals: Narita experimental laboratory of NAS Laboratory Co., Ltd. • Distributor of the animals: Ishige Tikusan • Acclimatization period: approximately 7 days after introduction • Quarantine: the absence of abnormalities was confirmed by quarantine under clinical observation at the time of introduction and during the acclimatization period. • Individual discrimination: ear tag <Rearing Conditions> (1) Rearing environment
Atropine sulfate was intramuscularly administered at 0.05 mg/kg (dosing volume: 0.1 mL/kg) to each animal. Approximately 30 minutes later, 20 mg/kg (dosing volume: 0.4 mL/kg) of ketamine hydrochloride and 4 mg/kg (dosing volume: 0.2 mL/kg) of xylazine hydrochloride were mixed and intramuscularly administered thereto. Each anesthetic was introduced by the intramuscular administration to the ear root using a disposable syringe (Terumo Corp.) attached with an 18 G injection needle (Terumo Corp.). Then, a tracheal tube (TOP intratracheal tube, TOP Corp.) was intubated, and the anesthesia was maintained with isoflurane using an inhalation anesthesia apparatus SUBARU-KJ02 (Mikasa Kantou Syoukai Co., Ltd.) and a mechanical ventilator (COMPOS β-EV, Metran Co., Ltd.). The perioperative isoflurane concentration was set to 1 to 3%, and the amount of oxygen was set to 2 L/min. The intrapulmonary pressure of the mechanical ventilator was set to 15 cm H2O, and the respiratory rate was set to 15 times/min. Each animal was placed supine on an operating table and covered with a sterilized drape.
• 1. Each completely anesthetized pig was laparotomized by abdominal midline incision using a surgical knife and an electric surgical knife to expose the liver. • 2. Oozing bleeding was created by abrading the liver using a metal file. • 3. Each test substance was applied to the bleeding inclined plane by usual application (*1) or spray application (*2). • 4. The time from after the end of application to the end of assessment of the completion of hemostasis was measured using a stopwatch (*3). The amount of each test substance used until the end of the test was recorded. • *1: A syringe was packed with the peptide solution (test substance), and the peptide solution was pushed out of a nozzle at the tip of the syringe and thereby applied to the subject (see the syringe of FIG. 1). • 2: A syringe (equivalent to that of FIG. 1) packed with the peptide solution (test substance) was loaded in a spray gun, and compressed air was blown to a nozzle at the tip of the syringe using a compressor so that the peptide solution pushed out of the nozzle was sprayed to the subject. The spray pressure was generally 0.5 to 1.5 [kgf/cm2], though differing depending on the viscosity of each test substance, the status of bleeding, and the distance to the application site. • 3: If bleeding was not weakened after initial application (if it was judged that this condition would not lead to hemostasis), additional application was appropriately performed. The time of completion of initial application was defined as the start of measurement, and the time of completion of hemostasis assessment was defined as the end of measurement. <Results>

[2] = Storage elastic modulus of peptide solutions before application (frequency sweep test); format: physicochemical; conditions: shear stress 1 Pa
Protocol: Frequency sweep tests were conducted from 1 rad/sec to 10 rad/sec at a shear stress of 1 Pa, and the storage elastic modulus at 10 rad/sec was selected as data. As for a viscosity before gelling, tests were conducted for a soaking time of 2 min by loading each peptide solution between 20 mm plates with a gap distance of 500 um.

[3] = peptide concentrations of 1.5% or higher (1.5%, 2.0%, 2.5%)

Row | Sequence | amount of the solution applied until hemostasis, spray application group compared with usual application group ([1]; peptide concentration 1.0%) | hemostasis completion time, spray application group compared with usual application group ([1]; peptide concentration 1.0%) | amount of the solution applied until hemostasis, spray application group compared with usual application group [1, 3] | hemostasis completion time, spray application group compared with usual application group [1, 3] | Storage elastic modulus G′ (Pa) (mean: N = 3) ([2]; peptide 1.0% by weight, pH no treatment, at 10 rad/sec) | Storage elastic modulus G′ (Pa) (mean: N = 3) ([2]; peptide 1.5% by weight, pH no treatment, at 10 rad/sec) | Storage elastic modulus G′ (Pa) (mean: N = 3) ([2]; peptide 2.0% by weight, pH no treatment, at 10 rad/sec) | Storage elastic modulus G′ (Pa) (mean: N = 3) ([2]; peptide 2.5% by weight, pH no treatment, at 10 rad/sec) | hemostasis outcome ([1]; spray application) | hemostasis outcome ([1]; usual application) | Storage elastic modulus G′ (Pa) (mean: N = 3) ([2]; peptide 1.0% by weight, pH 7.5, at 10 rad/sec) | Storage elastic modulus G′ (Pa) (mean: N = 3) ([2]; peptide 1.5% by weight, pH 7.5, at 10 rad/sec) | Storage elastic modulus G′ (Pa) (mean: N = 3) ([2]; peptide 2.0% by weight, pH 7.5, at 10 rad/sec) | amount of the solution applied until hemostasis, spray application group compared with usual application group ([1]; peptide concentration 1.5%) | hemostasis completion time, spray application group compared with usual application group ([1]; peptide concentration 1.5%) | Storage elastic modulus G′ (Pa) (mean: N = 3) ([2]; peptide 1.0% by weight, pH 3.0, at 10 rad/sec) | Storage elastic modulus G′ (Pa) (mean: N = 3) ([2]; peptide 1.5% by weight, pH 3.0, at 10 rad/sec)
1 | RADARADARADARADA [Peptide No. 1] | smaller amount of the solution applied until hemostasis | tendencies of a shorter hemostasis completion time | smaller amount of the solution applied until hemostasis | evidently resulted in a shorter hemostasis completion time | 30 | 75 | 141 | 503 | – | – | – | – | – | – | – | – | –
2 | RLDLRLALRLDLR (Ac-RLDLRLALRLDLR-NH2) [Peptide No. 3, self-assembling peptide, solution in purified water] | – | – | – | – | – | – | – | – | succeeded in hemostasis | failed in hemostasis | 75 | 239 | 439 | – | – | – | –
3 | IEIKIEIKIEIKI [Peptide No. 2] | no significant difference | no significant difference | – | – | – | – | – | – | – | – | – | – | – | smaller amount of the solution applied until hemostasis | evidently resulted in a shorter hemostasis completion time | 349.0 | 2,309 Pa
